This note sets out measurements from publication PMC4324447 (Journal of Medicinal Chemistry, 2014).

In one test the target is L106P hMC4R (Homo sapiens, UniProt P32245, L106P). In words: cAMP based CRE/β-galactosidase reporter gene functional bioassay, L106P hMC4R. It is filed as cell-based. (In general: In a reporter assay the amount or activity of a reporter protein is the signal.)
In another test the target is WT hMC4R (Homo sapiens, UniProt P32245). The format is cell-based.
WT hMC4R, sequence (P32245 whole entry): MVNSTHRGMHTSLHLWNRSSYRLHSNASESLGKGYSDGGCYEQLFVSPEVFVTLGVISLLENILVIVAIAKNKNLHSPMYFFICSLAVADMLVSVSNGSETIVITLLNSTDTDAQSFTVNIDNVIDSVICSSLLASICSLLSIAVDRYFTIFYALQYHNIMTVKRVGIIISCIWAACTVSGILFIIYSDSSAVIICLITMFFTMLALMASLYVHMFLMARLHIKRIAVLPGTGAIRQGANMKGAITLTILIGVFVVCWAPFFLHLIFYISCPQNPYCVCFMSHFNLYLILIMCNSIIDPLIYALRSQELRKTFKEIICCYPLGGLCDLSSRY

L106P hMC4R, sequence (P32245 whole entry L106P): as the sequence (P32245 whole entry) above, with L106P counted along it

A word on the EC50: it is the concentration that produces a half-maximal response. Read a high EC50 as lower potency in that assay. For the compound `CC(=O)N[C@@H](Cc1cnc[nH]1)C(=O)N[C@H](Cc1ccccc1)C(=O)N[C@@H](CCCN=C(N)N)C(=O)N1Cc2ccccc2C[C@H]1C(N)=O` [EMH4-107, Ac-His-DPhe-Arg-Tic-NH2], the EC50 was over 100 µM at L106P hMC4R and over 10 µM at WT hMC4R.
